From publication PMC5877348, “Presence of a Haloarchaeal Halorhodopsin-Like Cl^− Pump in Marine Bacteria” (Microbes and Environments, 2018)

Experiments:
[1] = molecular target: T1, RmHR (Rubricoccus marinus halorhodopsin) (Rubricoccus marinus, UniProt A0A259U296); assay: biochemical; design: gene BSZ36_14690
[2] = molecular target: T1, RmHR (Rubricoccus marinus halorhodopsin); assay: normal-phase HPLC of extracted retinal oxime; format: binding; design: gene BSZ36_14690; full-length codon-optimised synthetic gene in pET21a, C-terminal His6; expressed in E. coli, DDM-solubilised, purified; details: covalent (Schiff base); 1 M NaCl, 25°C, dark or illuminated at 540 nm; retinal supplied during expression

T1 sequence (A0A259U296 entry or part of it): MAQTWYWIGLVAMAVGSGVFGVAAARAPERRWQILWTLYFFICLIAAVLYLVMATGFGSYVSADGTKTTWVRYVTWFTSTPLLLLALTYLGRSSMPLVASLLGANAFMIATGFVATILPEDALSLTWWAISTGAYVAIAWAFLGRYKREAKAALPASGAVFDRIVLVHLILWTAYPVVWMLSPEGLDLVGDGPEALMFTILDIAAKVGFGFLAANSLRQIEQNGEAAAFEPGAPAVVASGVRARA

SMILES	Kd [1] [mM]	normal-phase HPLC of extracted retinal oxime [2]
Cl [Cl^−]	7.6 ± 1.7	–
CC1=C(/C=C/C(C)=C/C=C/C(C)=C/C=O)C(C)(C)CCC1 [all-trans-retinal]	–	RmHR predominantly possesses all-trans retinal as a chromophore
